Measured values reported in patent US20070275977A1, “N-OXIDES OF PYRIDYLMETHYL -PIPERAZINE AND -PIPERIDINE DERIVATIVES” (priority 2006, published 2007).
“Also recorded” adds a separate entry of the source. Like-named read-outs stand apart in the source and are kept apart here.

Experiments:
[1] = Pharmacological profile in vivo (overall statement)
Method: (§1) Lower lip retraction, an in vivo animal model for serotonin 5-HT1A receptor agonistic activity, was measured according to the method described by Berendsen (1989); Apomorphine-induced climbing behaviour in mice, an in vivo animal model for dopamine-D2 receptor antagonistic activity, was determined according to the method described by Costall (1978).

[2] = Brain concentrations in mice after i.v. or p.o. administration, LC-MS; type: in vivo; settings: for concentration at 0.17 h / concentration at 0.5 h / concentration at 1 h / concentration at 3 h / concentration at 7 h / concentration at 24 h: mouse, brain, read-out: piperazine-N-ox analyzed in brain
Method: (§2) The LC-MS system consists of 2 Perkin elmer series 200 micro pumps. The pumps were connected to each other by a 50 pI tee mixer, and connected to a Gilson 215 auto sampler. The method was as follows:
(§3) The auto sampler was connected to a Waters Atlantis C18 30*4.6 mm column with 3 μm particles. The column was thermo stated in a Perkin Elmer series 200 column oven at 40° C. The column was connected to a Perkin Elmer series 200 UV meter with a 2.7 μl flowcel. The wavelength was set to 254 nm. The UV meter was connected to a Sciex API 150EX mass spectrometer. The mass spectrometer had the following parameters: Scanrange:150-900 a.m.u., polarity: positive; scan mode: profile; resolution Q1: UNIT; step size: 0.10 a.m.u.; time per scan: 0.500 sec; NEB: 10; CUR: 10; IS: 5200; TEM: 325; DF: 30; FP: 225 and EP: 10. The light scattering detector was connected to the Sciex API 150. The light scattering detector was a Sedere Sedex 55 operating at 50° C. and 3 bar N2. The complete system was controlled by a G3 powermac.
(§4) For oral (p.o.) administration: to the desired quantity (0.5-5 mg) of the solid test compound in a glass tube, some glass beads were added and the solid was milled by vortexing for 2 minutes. After addition of 1 ml of a solution of 1% methylcellulose in water and 2% (v/v) of Poloxamer 188 (Lutrol F68), the compound was suspended by vortexing for 10 minutes. The pH was adjusted to 7. Remaining particles in the suspension were further suspended by using an ultrasonic bath.
For intravenous (i.v.) administration: compounds were dissolved in physiological saline (0.9% NaCl) and the pH was adjusted to 7.
Data were averaged (n=3), and collected in table 4.

[3] = tested on: neurotransmitter receptors; assay: Pharmacological profile in vitro (overall statement)
Method: (§5) ln vitro affinity for neurotransmitter receptors: The binding data collected below were either obtained by CE REP (128, rue Danton, 92500 Rueil-Malmaison, France) or at Solvay Pharmaceuticals B.V. (C. J. van Houtenlaan 36, 1381 CP Weesp, The Netherlands), using well documented standard procedures. The affinities for dopamine-D2 and 5-HT1A receptors for instance, were measured as described by Creese (1997) and Gozlan (1983) respectively.
In vitro (ant)agonistic activity at human D2 receptors and 5-HT1A receptors was measured according to the methods described by Solomon (1974) and Weiss (1985) respectively, on the formation of adenylate cyclase in CHO cell-lines expressing these cloned receptors.

Serotonin-5-HT1A = biological target: T1, Serotonin-5-HT1A (Homo sapiens, UniProt P08908); assay: In vitro receptor affinity, Serotonin-5-HT1A; type: binding; settings: radioligand [3H]-8-OH-DPAT, read-out: K1 (in vitro receptor affinity)
T1 sequence (P08908 1-422): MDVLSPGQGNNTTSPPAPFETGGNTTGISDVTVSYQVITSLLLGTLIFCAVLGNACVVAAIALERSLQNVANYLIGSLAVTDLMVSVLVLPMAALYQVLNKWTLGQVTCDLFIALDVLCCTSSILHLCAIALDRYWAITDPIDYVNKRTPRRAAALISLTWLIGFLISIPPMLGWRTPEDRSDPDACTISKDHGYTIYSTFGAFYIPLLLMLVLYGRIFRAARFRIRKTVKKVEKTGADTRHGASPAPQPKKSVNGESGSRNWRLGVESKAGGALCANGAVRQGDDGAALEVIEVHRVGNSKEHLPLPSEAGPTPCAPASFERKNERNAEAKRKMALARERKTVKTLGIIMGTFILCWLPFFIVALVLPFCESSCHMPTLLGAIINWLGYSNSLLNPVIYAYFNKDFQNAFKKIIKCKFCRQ
Method: as §5

Lower lip retraction = assay: Lower lip retraction; type: in vivo; settings: po, read-out: Lower Lip Retraction: ED50
Method: as §4, §1

Dopamine-D2 = Dopamine-D2 (Homo sapiens, UniProt P14416); assay: In vitro receptor affinity, Dopamine-D2; type: binding; settings: radioligand [3H]-spiperone, read-out: K1 (in vitro receptor affinity)
Method: as §5

[4] = Partition coefficient, experimental (Log P); type: physicochemical; settings: at pH 7.0
[5] = Plasma concentrations in mice after i.v. or p.o. administration, blood analyzed by LC-MS; type: in vivo; settings: piperazine-N-oxide administered
Method: as §2, §3
as §4, with “Remaining particles in the suspension were further suspended by using an ultrasonic bath.” left out

[6] = tested on: Apomorphine-induced climbing behaviour in mice; assay: Antagonism of apomorphine-induced climbing behaviour in mice; type: in vivo; settings: Mus musculus, po, read-out: Antagon. apomorphine ind. climbing: ED50
Method: as §4, §1

[7] = iv, 0.5 mg/kg i.v. of administered compound
[8] = po, 5 mg/kg p.o. of administered compound

Dopamine-D2, sequence (P14416 whole entry): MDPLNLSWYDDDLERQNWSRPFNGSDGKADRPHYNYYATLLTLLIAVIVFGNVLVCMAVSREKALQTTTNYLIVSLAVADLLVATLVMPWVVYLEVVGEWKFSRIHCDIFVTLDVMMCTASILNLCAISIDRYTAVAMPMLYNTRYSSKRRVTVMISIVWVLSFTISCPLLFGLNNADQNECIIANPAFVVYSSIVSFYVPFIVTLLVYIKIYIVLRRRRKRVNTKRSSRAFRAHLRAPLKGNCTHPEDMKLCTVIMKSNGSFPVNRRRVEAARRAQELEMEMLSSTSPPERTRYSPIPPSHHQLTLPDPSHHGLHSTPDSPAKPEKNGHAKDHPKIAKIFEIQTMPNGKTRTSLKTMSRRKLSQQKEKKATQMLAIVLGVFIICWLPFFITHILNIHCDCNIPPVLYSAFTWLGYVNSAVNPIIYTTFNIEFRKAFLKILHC

[O-][n+]1cc(C[N+]2([O-])CCN(c3cccc4c3OCCO4)CC2)cc(-c2ccc(F)cc2)c1 [SLV313-bis-N-oxide, 4-(2,3-dihydro-benzo[1,4]dioxin-5-yl-1-[5-4-fluorophenyl]-1-oxy-pyridin-3-ylmethyl)piperazine-1-oxide]
potency relative to corresponding parent molecule, the pyridine N-oxide ([1]; stated by analogy): equipotent

[O-][N+]1(Cc2cncc(-c3ccc(F)cc3)c2)CCN(c2cccc3c2OCCO3)CC1 [piperazine N-oxide]
detection of administered compound in brain ([2]; i.v. or p.o.): hardly detected in brain
concentration at 0.17 h [2, 7]: 3.1 ng/g
concentration at 0.5 h [2, 7]: 4.4 ng/g
concentration at 1 h [2, 7]: 0 ng/g
concentration at 3 h [2, 7]: 0 ng/g
concentration at 7 h [2, 7]: 0 ng/g
concentration at 24 h [2, 7]: 0 ng/g
concentration at 0.17 h [2, 8]: 2.9 ng/g
concentration at 0.5 h [2, 8]: 2.6 ng/g
concentration at 1 h [2, 8]: 0 ng/g
concentration at 3 h [2, 8]: 0 ng/g
concentration at 7 h [2, 8]: 0 ng/g
concentration at 24 h [2, 8]: 0 ng/g
pharmacological profile/potency in vivo relative to SLV313 ([1]; in vivo): equipotent
pharmacological profile/activity in vitro relative to parent SLV313 [3]: virtually inactive; also recorded: nearly inactive
Ki (Serotonin-5-HT1A): 25 nM
melting point: 181 to 182 °C
ED50 (Lower lip retraction): 10 mg/kg
Ki (Dopamine-D2): > 1000 nM
logP [4]: 1.7
time at which plasma concentrations of piperazine-N-oxide and parent molecule cross [5]: within half an hour
ED50 [6]: 0.3 mg/kg
